Experimental data as given in paper PMC12365235, “Molecular mechanisms of thiazide-like diuretics-mediated inhibition of the human Na-Cl cotransporter” (Nature Communications, 2025).
Numbering of substitutions follows the chain as printed. Entries after “also recorded” stand apart in the source; their conditions may differ.

Key:
[1] = molecular target: T1, hNCC(H234N) (Homo sapiens, UniProt P55017, H234N); test: 125I- uptake assay, hNCC(H234N) variant; format: cell-based; conditions: 100 μM polythiazide
T1 construct: expressed in transfected cells
T1 sequence (P55017 1-1021 H234N): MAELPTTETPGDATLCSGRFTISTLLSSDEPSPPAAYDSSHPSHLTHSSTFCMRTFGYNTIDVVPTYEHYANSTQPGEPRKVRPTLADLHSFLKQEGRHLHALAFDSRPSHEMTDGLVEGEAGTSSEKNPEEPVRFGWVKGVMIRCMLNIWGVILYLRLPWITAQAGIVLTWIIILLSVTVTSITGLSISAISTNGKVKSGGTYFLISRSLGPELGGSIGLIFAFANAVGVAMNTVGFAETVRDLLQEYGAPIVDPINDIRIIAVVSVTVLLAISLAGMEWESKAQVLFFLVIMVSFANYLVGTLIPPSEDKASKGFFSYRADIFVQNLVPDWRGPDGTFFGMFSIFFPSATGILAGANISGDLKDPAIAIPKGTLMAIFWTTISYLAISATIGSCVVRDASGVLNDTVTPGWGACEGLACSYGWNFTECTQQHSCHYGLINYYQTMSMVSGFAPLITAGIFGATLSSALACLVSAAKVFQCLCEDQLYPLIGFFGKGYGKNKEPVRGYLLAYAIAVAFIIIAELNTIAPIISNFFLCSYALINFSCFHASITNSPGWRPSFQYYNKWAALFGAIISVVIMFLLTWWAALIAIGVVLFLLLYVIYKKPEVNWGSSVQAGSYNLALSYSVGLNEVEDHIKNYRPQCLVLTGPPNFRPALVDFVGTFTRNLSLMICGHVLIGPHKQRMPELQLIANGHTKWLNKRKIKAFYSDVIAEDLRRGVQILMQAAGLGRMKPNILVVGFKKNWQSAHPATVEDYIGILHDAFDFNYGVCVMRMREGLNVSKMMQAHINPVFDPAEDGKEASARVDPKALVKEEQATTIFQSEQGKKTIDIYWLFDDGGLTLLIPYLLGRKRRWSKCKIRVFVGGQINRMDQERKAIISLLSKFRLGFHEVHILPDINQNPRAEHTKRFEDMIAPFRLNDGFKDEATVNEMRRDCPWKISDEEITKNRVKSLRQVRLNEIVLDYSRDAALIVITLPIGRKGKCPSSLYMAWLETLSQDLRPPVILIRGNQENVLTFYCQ
Protocol: (§1) HEK293S cell lines, cultured in 293 Freestyle medium (Life Technologies; plus 10% fetal bovine serum), stably expressing hNCC and its variants were generated following published protocols. Cells were transfected using Lipofectamine 3000 (Invitrogen) with a pSBbi-RP-based plasmid containing hNCC or its variants and the SB100X vector. Puromycin (2 μg/mL; Gemini Bio-Products) was used for selection of stable cell lines.
(§2) To prepare for the uptake experiment, cells were plated at 0.5 × 10^6 cells/well in 24-well plates one day in advance. To activate NCC, cells were treated with a chloride-free hypotonic solution composed of 67.5 mM sodium-, 2.5 mM potassium-, 0.25 mM magnesium-, and 0.25 mM calcium-gluconate, as well as 7.5 mM HEPES pH 7.4 (buffered using Tris) at 37 °C for 10 min[72]. After the activation step, the experiments were carried out at room temperature. Ten minutes before the start of ^125I^− uptake, 70 μM Bumetanide (Thermo Scientific Chemicals) and 100 μM 4,4′-diisothiocyanatostilbene-2,2′-disulfonic acid (DIDS; Sigma) were added to suppress background iodide uptake activity. Indicated thiazide diuretics were also added to the indicated concentrations 10 min before the start of ^125I^− uptake. […] Cells lysed using 1% sodium dodecyl sulfate (SDS) were analyzed by scintillation counting.

[2] = molecular target: T2, hNCC(T352I) (Homo sapiens, UniProt P55017, T352I); test: 125I- uptake assay, hNCC(T352I) variant; format: cell-based; conditions: 100 μM polythiazide
T2 construct: expressed in transfected cells
T2 sequence (P55017 1-1021 T352I): T1 sequence (P55017 1-1021 H234N) with N234H, T352I
Protocol: as §1, §2

CN1C(CSCC(F)(F)F)Nc2cc(Cl)c(S(N)(=O)=O)cc2S1(=O)=O (centres unmarked) [polythiazide]
inhibition of transport activity [1]: fully inhibited; also recorded: completely inhibited | inhibition of transport activity [2]: fully inhibited; also recorded: completely inhibited
